Reference: patent publication US20020187925A1, “Modulating the activity of hormones or their receptors - peptides, antibodies, vaccines and uses thereof” (priority 1996, published 2002)
Non-standard residues stand in square brackets, D forms with d. No end group written: not given here. NMeY = CN[C@@H](Cc1ccc(O)cc1)C(=O)O

Experiments:
[1] = Immunisation of growing lambs with antigen in oil; assay type: in vivo
Experimental: When this antigen was injected three times into growing lambs with the preferred delivery vehicle (oil), anti-SRIF and anti-cholecystokinin antibodies were detectable at 84 days of age. By this time, the immunised lambs had grown an average of 20% more than non-immunised lambs.

SRIF = assay: Example 23: levels of anti-SRIF antibodies in gut, plasma, milk; assay type: in vivo, pigs; settings: for Gut IgA anti-SRIF antibodies / Gut IgG anti-SRIF antibodies / Plasma IgA anti-SRIF antibodies / Plasma IgG anti-SRIF antibodies: piglets
Source text: Sows immunized twice in the last trimester of pregnancy with SEQ ID No 3 produced piglets which were on average 27% heavier at weaning (at 21 days of age) than the offsprings of sows immunised with SRIF 14 conjugate vaccine. The levels of anti-SRIF antibodies measured are given below:
Significant quantities of antibodies to SRIF were detected in the plasma and gut scrapings of piglets sucking sows immunised with SRIF/BSA or SEQ ID NO:3 emulsified in the oil of the invention.

[2] = Example 22: pregnant pigs immunised twice in last trimester; anti-SRIF antibodies and piglet growth rates; assay type: in vivo; settings: for absolute growth rates of the piglets: birth to weaning, non-immunised control 165; for anti-SRIF antibodies in colostrum and milk of the sow and in blood and gut scrapings of piglets: piglets at 3 days and 21 days of age, antigen in the preferred oil
Source text: The absolute growth rates of the piglets from birth to weaning were: […]

[3] = Example 23: weaning weight of piglets of immunised sows; assay type: in vivo, pigs; settings: 21 days of age; sows immunized twice in last trimester
Source text: Sows immunized twice in the last trimester of pregnancy with SEQ ID No 3 produced piglets which were on average 27% heavier at weaning (at 21 days of age) than the offsprings of sows immunised with SRIF 14 conjugate vaccine. The levels of anti-SRIF antibodies measured are given below: […]

[4] = Immunisation of male pigs from 12 weeks of age; assay type: in vivo
Source text: Male pigs immunised with this peptide three times from 12 weeks of age grew an average of […] faster than non-immunised pigs to 24 weeks of age, and the testicle size of the immunised pigs was approximately 50% the size of those of the non-immunised animals.

[5] = Solubility in sterile saline; assay type: physicochemical; settings: sterile physiological saline / sterile saline solutions
[6] = Growth of piglets suckling dams vaccinated in last trimester of pregnancy; assay type: in vivo, pigs; settings: birth to weaning
Source text: Piglets suckling dams which had been vaccinated with this molecule in the last trimester of pregnancy grew an average of 40% faster from birth to weaning than did corresponding piglets which were suckling non-immunised dams.

[7] = Example 16: pregnant gilts immunised with FEEDMIZA or SRIF-conjugate; liveweight gain, feed conversion; assay type: in vivo, pigs
Experimental: This experiment was designed to measure the effects of vaccinating pregnant gilts with FEEDMIZA by the subcutaneous route during first pregnancy. Opportunity was taken to compare any response to FEEDMIZA with response to a SRIF-conjugate vaccine delivered in the same delivery vehicle as peptide No.1. For that comparison the quantity of antigen was standardised at 100 μg of SRIF in the SRIF-conjugate, and 100 μg of the FEEDMIZA antigen.
Twenty four Landrace X Large White female hybrid gilts were selected, mated and held in conventional dry sow stalls. They were randomly assigned to 3 treatment groups, viz:
The gilts were immunised by subcutaneous injection of 3 ml of the relevant antigen at the neck-on the day of mating.
The animals were held in conventional single dry sow stalls. At 30 days of pregnancy the treatment groups were reduced to 5 confirmed pregnant animals per treatment group. Subsequent vaccinations were performed at weeks 6, 9 and 12 of pregnancy. Each gilt was fed 3 kg of feed (Breedmore sow ration, Barastoc, Melbourne) each day from mating until farrowing. Each animal was weighed at mating, and at intervals of 3 weeks until farrowing.

[8] = Example 18: liveweights of piglets of immunised sows; assay type: in vivo, pigs
Source text: This experiment sought to study the effects pre-farrowing immunisation of sows with SRIF-conjugate vaccine, or FEEDMIZA vaccine on the subsequent patterns of liveweight gain of their sucking piglets to weaning at 3 weeks of age, and for the post-weaning period The experiment monitored the piglets which were the subject of the previous experiment.
The piglets (8 per litter) on each of the 5 sows in the treatment groups (non-immunised, SRIF-conjugate immunised and FEEDMZA-immunised) were individually eartagged for identification, and were weighed at birth, 7, 14, 21 days (the day of weaning) and 35 days of age (2 weeks post-weaning).
During lactation the piglets had ready access to a creep area which was warmed by an infra-red lamp, water ad libitum and creep feed granules (Barastoc, Melbourne) for the period of 18-21 days of age. They had no access to their mothers feed during the period of lactation
At weaning each litter of piglets was placed in a flatdeck weaning cage with 50% of the floor being bedding area, and 50% woven wire mesh. The cage was provided with a small silo feeder containing the same creep/weaner feed which had been offered to the piglets for the 3 days prior to weaning. Feed and fresh drinking water were offered ad libitum.

[9] = Example 17: sows of Example 16 during lactation; liveweight loss; assay type: in vivo, pigs
Source text: This experiment was a continuation of the trial of Example 16. It sought to observe the rate of liveweight gain of piglets during the lactation period up to weaning for piglets whose dams were immunised during gestation with FEEDMIZA, or with a SRIF-conjugate vaccine, using piglets being reared by non-immunised dams as controls.
Sows from Example 16 continued to be reared without any further immunisations or manipulations, with the exception that;
a) daily feed offered was increased to 6 kg per head from farrowing to weaning 21 days later.
b) 3 days after farrowing the number of piglets on each sow was reduced to 8 to ensure that each litter of pigs in the experiment was benefiting from the combined effects of the quantity of milk produced, and ingested any antibodies that might be in them, without confounding influences of varying litter sizes, social interactions, and competition for teats. Sows were weighed at weaning.
Piglets were individually identified at birth, and were weighed at birth, and each 7 days until weaning at 21 days of age. All piglets received a routine oral dose of broad spectrum antibiotic (Tribrissen Piglet Suspension, Intervet, Melbourne) at three days of age, as well as an intramuscular supplemental iron injection Pignaemia, Intervet, Melbourne)
Water was available ad libitum to sows and piglets at all times.

A-Y-M-G-W-S-C-T-K-W-F (AYMGWSCTKWF) [SEQ ID NO:52]
growth more than non-immunised lambs ([1]; by 84 days of age): 20%
anti-SRIF and anti-cholecystokinin antibodies ([1]; lambs injected three times in oil, at 84 days of age): detectable

C-F-W-K-T-C-S-G (CFWKTCSG; not fully specified (bridges); printed as C-F-W-K-T-C-S-G; cysteine pairing not given here) [SEQ ID NO:3]
Milk/colostrum IgA anti-SRIF antibodies (SRIF; DAY 3): 0.026 ± 0.028 OD @ 405 nm
Sow's milk IgG anti-SRIF antibodies (SRIF; DAY 3): 1.4 ± 0.162 OD @ 405 nm
Gut IgA anti-SRIF antibodies (SRIF; DAY 3): 0.12 ± 0.157 OD @ 405 nm
Gut IgG anti-SRIF antibodies (SRIF; DAY 3): 0.51 ± 0.21 OD @ 405 nm
Plasma IgA anti-SRIF antibodies (SRIF; DAY 3): 1.43 ± 0.217 OD @ 405 nm
Plasma IgG anti-SRIF antibodies (SRIF; DAY 3): 0.9 ± 0.13 OD @ 405 nm
Gut IgA anti-SRIF antibodies (SRIF; DAY 21): 0.10 ± 0.087 OD @ 405 nm
Gut IgG anti-SRIF antibodies (SRIF; DAY 21): 0.123 ± 0.09 OD @ 405 nm
Plasma IgA anti-SRIF antibodies (SRIF; DAY 21): 0.567 ± 0.21 OD @ 405 nm
Plasma IgG anti-SRIF antibodies (SRIF; DAY 21): 2.12 ± 0.23 OD @ 405 nm
absolute growth rates of the piglets [2]: 275 g per day
anti-SRIF antibodies in colostrum and milk of the sow and in blood and gut scrapings of piglets [2]: produced anti-SRIF antibodies
piglets heavier at weaning than offspring of sows immunised with SRIF 14 conjugate vaccine [3]: 27%

F-W-K-T-S-G-G (FWKTSGG) [SEQ ID NO:4]
absolute growth rates of the piglets [2]: 240 g per day
anti-SRIF antibodies in colostrum and milk of the sow and in blood and gut scrapings of piglets [2]: produced anti-SRIF antibodies

F-W-K-T-S-K-H-W-S-Y-G-L-R-D-G-C (FWKTSKHWSYGLRDGC) [SEQ ID NO:53]
grew faster than non-immunised pigs ([4]; male pigs immunised three times from 12 weeks, to 24 weeks of age): 12 weeks
testicle size relative to non-immunised animals ([4]; male pigs, 24 weeks of age): approximately 50%

F-W-K-T-S-T-K-T-S-T-K-W-F (FWKTSTKTSTKWF) [SEQ ID NO:5]
anti-SRIF antibodies in colostrum and milk of the sow and in blood and gut scrapings of piglets [2]: produced anti-SRIF antibodies

LCFWKTC [SEQ ID NO:1]
solubility in sterile saline [5]: relatively soluble

NMe-Y-D-T-K-V-F-C-S ([NMeY]DTKVFCS) [SEQ ID NO:51]
growth of suckling piglets faster than piglets suckling non-immunised dams [6]: 40%
solubility in sterile saline [5]: very poorly soluble

SRIF-conjugate: SRIF-conjugate vaccine delivered in the same delivery vehicle as peptide No.1 (SANSNPAMAPRERKAGCKNFFWKTFTSC; ends and bridges not checked; also: SRIF-conjugate vaccine (conjugated, site not given here))
average liveweight gain per head during pregnancy ([7]; mating to parturition, 345 Kg feed, non-immunised 60): 75 kg
liveweight relative to non-immunised sows ([7]; weeks 12 and 15 of pregnancy (SRIF: from 9 weeks)): at no point was this difference ever stastically significant
liveweights of the piglets at weaning ([8]; 21 days of age): 7.32 ± 1.30 kg
Liveweights of the piglets 2 weeks after weaning ([8]; 35 days of age): 8.89 ± 1.33 kg
mean birthweights of the piglets ([8]; born to immunised sows): 1.40 ± 0.29 kg
Farrowing weight ([9]; sows): 154 ± 27.68 kg
Weaning weight ([9]; sows): 166.4 ± 26 kg
Weight loss ([9]; sows, farrowing to weaning): 7.2
mean loss of liveweight of sows ([9]; three weeks lactation period, non-immunised 10.8): 12 kg

SRIF/BSA: SRIF 14 (native somatostatin) conjugate presented with the preferred oil [reference compound]
Milk/colostrum IgA anti-SRIF antibodies (SRIF; DAY 3): 0.029 ± 0.035 OD @ 405 nm
Sow's milk IgG anti-SRIF antibodies (SRIF; DAY 3): 1.6 ± 0.22 OD @ 405 nm
Gut IgA anti-SRIF antibodies (SRIF; DAY 3): 0.189 ± 0.133 OD @ 405 nm
Gut IgG anti-SRIF antibodies (SRIF; DAY 3): 0.684 ± 0.548 OD @ 405 nm
Plasma IgA anti-SRIF antibodies (SRIF; DAY 3): 1.067 ± 0.469 OD @ 405 nm
Plasma IgG anti-SRIF antibodies (SRIF; DAY 3): 1.38 ± 0.44 OD @ 405 nm
Gut IgA anti-SRIF antibodies (SRIF; DAY 21): 0.037 ± 0.05 OD @ 405 nm
Gut IgG anti-SRIF antibodies (SRIF; DAY 21): 0.259 ± 0.18 OD @ 405 nm
Plasma IgA anti-SRIF antibodies (SRIF; DAY 21): 0.798 ± 0.49 OD @ 405 nm
Plasma IgG anti-SRIF antibodies (SRIF; DAY 21): 1.779 ± 0.13 OD @ 405 nm
absolute growth rates of the piglets [2]: 180 g per day
anti-SRIF antibodies in colostrum and milk of the sow and in blood and gut scrapings of piglets [2]: produced anti-SRIF antibodies
